The test system of experiment [1] is breast cancer subpanel (six cell lines). The experiment is described as follows: NCI-60 screen, breast cancer subpanel summary. The note with it: Homo sapiens, T47D, read-out: GI50 values range, breast cancer subpanel. The experiment is classed as cell-based.
Another experiment addresses tubulin (Sus scrofa, UniProt P02550+P02554). Put plainly: In vitro tubulin polymerization assay. The class given is biochemical. The note with it: at concentrations as high as 200 µM (data not shown).
Experiment [2] deals with panel of 60 human cancer cell lines. Put plainly: NCI-60 cell line anti-cancer screen, whole panel summary. The class given is cell-based. The conditions noted are these: read-out: average GI50 value against all the cancer cell lines screened, NCI-60 panel.

Sequence of tubulin (P02550 whole entry): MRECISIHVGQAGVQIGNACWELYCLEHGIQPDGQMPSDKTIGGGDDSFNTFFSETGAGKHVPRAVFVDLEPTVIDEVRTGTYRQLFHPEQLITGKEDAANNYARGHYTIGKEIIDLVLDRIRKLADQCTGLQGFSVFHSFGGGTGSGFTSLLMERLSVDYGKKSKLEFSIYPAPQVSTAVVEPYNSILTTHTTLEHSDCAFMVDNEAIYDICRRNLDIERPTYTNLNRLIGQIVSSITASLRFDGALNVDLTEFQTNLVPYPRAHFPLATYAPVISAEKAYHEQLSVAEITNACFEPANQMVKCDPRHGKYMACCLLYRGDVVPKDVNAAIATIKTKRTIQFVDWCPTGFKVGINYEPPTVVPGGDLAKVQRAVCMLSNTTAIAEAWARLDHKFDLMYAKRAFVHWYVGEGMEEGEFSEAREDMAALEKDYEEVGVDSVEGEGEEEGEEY
Sequence of tubulin (P02554 whole entry): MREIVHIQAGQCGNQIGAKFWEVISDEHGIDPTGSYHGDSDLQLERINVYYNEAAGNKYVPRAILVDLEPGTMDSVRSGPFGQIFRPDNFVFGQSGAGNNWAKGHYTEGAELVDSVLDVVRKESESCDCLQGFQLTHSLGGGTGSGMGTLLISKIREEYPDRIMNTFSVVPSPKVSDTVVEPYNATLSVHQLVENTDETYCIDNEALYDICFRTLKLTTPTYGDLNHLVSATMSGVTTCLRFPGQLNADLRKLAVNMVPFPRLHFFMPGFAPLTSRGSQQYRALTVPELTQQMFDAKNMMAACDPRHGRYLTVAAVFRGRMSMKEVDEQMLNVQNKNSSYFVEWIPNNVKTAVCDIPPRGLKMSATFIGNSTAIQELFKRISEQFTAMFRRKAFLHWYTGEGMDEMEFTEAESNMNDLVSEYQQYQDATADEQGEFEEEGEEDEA

Consider `COc1cc(-c2n[nH]nc2-c2cc3ccccc3s2)cc(OC)c1OC` [Compound 8a, 4-(benzo[b]thiophen-2-yl)-5-(3,4,5-trimeth-oxyphenyl)-2H-1,2,3-triazole], for which the GI50 in experiment [1] is at most 0.014 µM.

Consider `COc1cc(-c2nn(C)nc2-c2cc3ccccc3s2)cc(OC)c1OC` [Compound 9, 4-(benzo[b]thiophen-2-yl)-2-methyl-5-(3,4,5-trimethoxyphenyl)-2H-1,2,3-triazole], for which the GI50 in experiment [1] is 0.04 to 1.6 µM. Also, at tubulin, the “inhibition of tubulin polymerization” value is “failed to inhibit tubulin polymerization”.

For the compound `COc1ccc(-c2n[nH]nc2-c2csc3ccccc23)cc1OC` [Compound 11b], the GI50 in experiment [1] fell in the range of 0.63 to 3.21 µM.

Turning to `COc1cc(-c2n[nH]nc2-c2c[nH]c3ccccc23)cc(OC)c1OC` [Compound 11d], the GI50 in experiment [2] is 0.424 µM; in experiment [1], 0.028 to 0.089 µM.

`COc1cc(OC)cc(-c2n[nH]nc2-c2c[nH]c3ccccc23)c1` [Compound 11e]: the GI50 in experiment [2] was 0.856 µM; in experiment [1], 0.017 to 0.076 µM.

As usually defined, the GI50 is the concentration at which growth is held to half of that of the control.

Source of the values: article PMC4821443 (MedChemComm, 2015).
